Experiment: Human HepG2 cell viability assay in 384 well format
Type: toxicity, cell-based
Set-up: dose 125 nL, time 70.5 hour; concentration not given beside the values
Settings: HepG2 cells, read-out: Inhibition

Row | Compound | cytotoxicity at 70.5 h [%]
1 | CN(Cc1cc(C2CC2)[nH]n1)C(=O)C(c1cccnc1)N1CCCC1 (configuration not stated) | -3.32
2 | COc1ncc(CN2CCC3(CCCN(CC4CCC4)C3)C2)cn1 (configuration not stated) | -1.38
3 | CN(C)CCN(CC1CCCO1)S(=O)(=O)NCc1ccccc1 (configuration not stated) | -6.41
4 | Cn1ccnc1-c1ccc(NC[C@H]2CCc3ccccc3O2)nn1 | 18
5 | Cc1nc2c(c(NCC(O)C(F)(F)F)n1)CCNCC2 (configuration not stated) | 11.7
6 | CC(C)OC(=O)N1CCC(c2nnc(Cn3ccnc3)n2C)CC1 | 20.7
7 | CCN1CC(CN(C)Cc2nc(-c3ccc(F)cc3F)oc2C)CC1=O (configuration not stated) | 2.47
8 | OC1(CN2CCCC2)COCCN(c2noc(-c3ccccc3)n2)C1 (configuration not stated) | -11
9 | COC(=O)CC1C(=O)NCCN1c1nc2c(s1)c(C)nn2C (configuration not stated) | 5.02
10 | Cc1cc(N2CCC(n3cc(CN4CCNCC4)nn3)CC2)ccn1 | 24.4
11 | COCCc1ncc(CN2CCCC(C(=O)c3ccccc3)C2)cn1 (configuration not stated) | -26
12 | CCOCc1nc2c(c(NC(CC)c3ccnn3C)n1)CCNCC2 (configuration not stated) | 0.295
13 | Cc1ccc(CCNC(=O)CC2COCCN2S(=O)(=O)N(C)C)o1 (configuration not stated) | 13.5
14 | CN1CCN(S(=O)(=O)NCC2COc3ccccc3C2)CC1 (configuration not stated) | -3.52
15 | COc1ccc(CCN2CC(NCc3ncc[nH]3)CC2=O)cc1 (configuration not stated) | -7.01
16 | O[C@@]1(CN2CCN(Cc3ccncc3)CC2)CCCN2CCCC[C@@H]21 | -9.72
17 | COc1cccc2c(=O)n(C3CCCNC3)cnc12 (configuration not stated) | -11.4
18 | Cc1nc(C2CCN(C(=O)c3ccc(Cl)s3)CC2)cc(=O)[nH]1 | -6.29
19 | COc1ccc(C[C@@H]2CC[C@H](CN(C)C3CCN(C)CC3)O2)cc1 | -5.62
20 | COc1cccc(OCCc2nc3c(cc2C(N)=O)CCC3)c1 | 1.85
21 | CSc1ccccc1CC1CCCS(=O)(=O)C1 (configuration not stated) | 3.79

Row | Compound | cytotoxicity at 70.5 h [%]
22 | Cc1nonc1C1CCCN1C(=O)c1cn2ccsc2n1 (configuration not stated) | -13.5
23 | c1cn(CCn2cnnc2)c(-c2cc3n(n2)CCCNC3)n1 | -5.64
24 | CC(=O)c1cc(CN2C[C@@H](CN3CCCC3)[C@@H](CO)C2)n(C)c1 | -5.11
25 | COCCc1nc(CN2CC(C)(c3ccccc3)CCC2=O)no1 (configuration not stated) | -2.58
26 | COc1ccc(-n2c(CO)nc3ccccc32)cc1CO | -6.11
27 | COc1cc(F)ccc1-c1cc(N)ccn1 | -0.436
28 | CNc1cc(-c2ccc(COCCN)cc2)c2cc[nH]c2n1 | -13.6
29 | C[C@@H]1CN(Cc2nc(C(N)=O)no2)CC[C@@]1(O)C1CC1 | -14.8
30 | CCc1cc(NCCN2CCNC2=O)n2nccc2n1 | 3.72
31 | OCCC1CN(c2ncnc3[nH]cnc23)CCN1Cc1ccccc1F (configuration not stated) | 5.32
32 | COc1ccc(C(=O)N2C[C@@H](NC(=O)N(C)C)[C@H](C(C)C)C2)c(OC)n1 | -11.2
33 | CN(CCC(C)(C)O)C(=O)C1CCC(=O)N(Cc2ccc(Cl)cc2)C1 (configuration not stated) | -5.36
34 | CCCOCC1CCN(C(=O)c2cnc(-c3cccnc3)nc2O)C1 (configuration not stated) | -6.25
35 | CCc1nc(C)c([C@H]2CN(C)C[C@@H]2C(=O)Nc2ccc3[nH]ncc3c2)[nH]1 | -5.87
36 | COCCN1CCC(CN(C)c2nc3c(s2)c(C)nn3C)C1 (configuration not stated) | -3.25
37 | CC(=O)C1(c2ccccc2)CCN(C(=O)c2ccn3nnnc3c2)CC1 | -13.3
38 | CC(Cc1cn(CCc2n[nH]c(=O)[nH]2)nn1)c1ccccc1 (configuration not stated) | -7.35
39 | CO[C@H]1CN(C(C)C)C[C@@H]1NC(=O)Nc1cccc(SC)c1 | 49.1
40 | N#Cc1cccc(N2CCC3(CCC(=O)N(CC4CCCO4)C3)CC2)n1 (configuration not stated) | 0.613
41 | Nc1cnc(-c2cccc3c2CCNC3)cn1 | -15.3
42 | O=C(NC[C@H]1CCCO1)c1ccc(S(=O)(=O)N2C[C@@H]3C[C@H]2CN3)cc1 | -1.62

Row | Compound | cytotoxicity at 70.5 h [%]
43 | CCN(CCn1c(=O)oc2ccccc21)CC1CCOCC1 | -2.32
44 | O=C(CCn1cnnn1)N1CCCC(CO)(CCc2ccccc2)C1 (configuration not stated) | 18
45 | O=C1NCC2(CCCN(C(=O)Cn3nc4ccccc4n3)CC2)O1 (configuration not stated) | 29.9
46 | CCc1cnc(N)nc1N1CCN(C(C)=O)CC1 | -15.8
47 | CN(Cc1ccccc1)c1ncccc1CNC1CCSCC1 | -2.31
48 | COCCC1(C(=O)O)CCCN(CCc2ccccc2)C1 (configuration not stated) | -7.32
49 | CCN1CCC(CC(=O)N(C)CC(=O)c2ccc(O)cc2)CC1 | -8.66
50 | COCCN(CC1CCCN(C2Cc3ccccc3C2)C1)C(=O)CO (configuration not stated) | -10
51 | CC(CN(C)Cc1cccc(-n2cccn2)c1)C(F)(F)F (configuration not stated) | -1.16
52 | Cc1ccc(-c2ccnc(N(C)CC3CCCO3)n2)c(C)n1 (configuration not stated) | -6.23
53 | CC(=O)Nc1ncc(S(=O)(=O)N2CCN(C3CCCCC3)CC2)s1 | -5.13
54 | CC(C)O[C@H]1CN(Cc2cnc3c(-c4ccccc4)cnn3c2)C[C@@H]1O | -5.99
55 | CC1CCN(CCCNS(=O)(=O)Cc2ccccc2F)CC1 | 1.01
56 | CCN(CC)c1ccc(-c2ccc(C)c(S(N)(=O)=O)c2)nn1 | -8.22
57 | CCn1nc(C)c(CN(CCOC)C(=O)c2ccccc2N(C)C)c1C | -2.9
58 | CCc1cccc(OCCCN(C)C(=O)CN2CCNC2=O)c1 | 0.78
59 | O=S(=O)(Cc1ccccc1Cl)NCCCN1CCCC1 | -5.39
60 | CCc1[nH]c2c(CNc3cnccn3)cc(F)cc2c1C | -2.66
61 | CCCc1cnc(C)nc1N1CCC(F)(F)CC1 | -9.65
62 | Cc1sc2nc(CCN)nc(N3CC(N4CCCCC4)C3)c2c1C | 26
63 | Cc1nc(NCc2ccc(C)o2)cc(C2CCNCC2)n1 | -23.6

Row | Compound | cytotoxicity at 70.5 h [%]
64 | Nc1ccnc(C(=O)N2CCCC3(CCC(=O)N(C4CCCC4)C3)C2)c1 (configuration not stated) | -7.4
65 | Cc1ccccc1N1CCN(c2cc(N(C)C)ncn2)C(C)C1 (configuration not stated) | -9.42
66 | CCC(=O)Nc1cccc(OCC(=O)N(C)CCCC2CCCO2)c1 (configuration not stated) | -3.54
67 | Cc1ccc(C)c(OC(C)C(=O)NCc2cccnc2)c1 (configuration not stated) | -5.32
68 | CCC(C(=O)NCc1ccncc1)N(c1ccccc1)S(C)(=O)=O (configuration not stated) | -3.1
69 | CCCNC(=O)c1cc(OC)c(OC)cc1N(C)S(C)(=O)=O | -8.53
70 | COc1ccc(OCC(C)NS(C)(=O)=O)cc1 (configuration not stated) | -3.53
71 | O=C(N[C@@H]1CCN(Cc2cccc3nonc23)C[C@H]1O)c1cccnc1 | -13.7
72 | COC(=O)C1CCN(C(=O)c2cccc(NS(C)(=O)=O)c2C)CC1 | -7.56
73 | CN(C)Cc1cn(CC2CCCN(c3nccc4occc34)C2)nn1 (configuration not stated) | -14.2
74 | O=c1[nH]c(COc2ccccc2Cl)nc2c1CCNC2 | -4.85
75 | c1cnc(N2CCN(CCn3ccnc3-c3c[nH]cn3)CC2)nc1 | -6.35
76 | Cc1ccc(-c2noc(CCC3CCN(C)CC3)n2)nn1 | -5.24
77 | CCC[C@H]1CN(c2nccc(NCC)n2)C[C@@H]1NS(=O)(=O)N(C)C | -7.09
78 | COc1nccnc1N1CCCC2(C1)C(=O)N(C)c1ccccc12 (configuration not stated) | -12.3
79 | COCC(=O)N1Cc2c(-c3cccc(C)c3)nc(N)nc2C1C (configuration not stated) | -9.82
80 | O=c1c2ccc(C(F)(F)F)cc2ncn1CCCN1CCCCC1CO (configuration not stated) | 14.6
81 | Cc1ncc(CNC2CC(=O)N(CCc3cccc(Cl)c3)C2)n1C (configuration not stated) | -9.98
82 | COc1cc(CNCc2ccco2)ccc1OCCO | -5.33

Reference: ChEMBL document CHEMBL3507680, “University of Dundee, Gates Library screen for HepG2 cell viability”
